The subject of this assay is Ba/F3 cells expressing EGFR Del19/C797S (EGFR DC). Nature of the assay: Proliferation inhibitory activity, Ba/F3 cells expressing EGFR Del19/C797S (CellTiter-Glo). The assay is classed as cell-based. Conditions: Mus musculus, BaF3, 72 hours of compound treatment. Put shortly:
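Viability after 72 h of compound exposure was measured by luminescence (CellTiter-Glo) in Ba/F3 lines transduced with mutant EGFR. Final concentrations spanned 0.2 nM–5 μM over 12 threefold steps. Growth relative to untreated control gave GI50 values; each test was run three times.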
On the technique in general: In ATP-based viability assays light output follows the ATP content of the culture.

The structures appear in SMILES notation.

Broadly, the GI50 is the concentration giving 50% growth inhibition. As to `COc1cc(C2CCN(C)CC2)ccc1Nc1cc(N2OCC[C@@H]2c2cccc(F)c2F)ncn1` [Example 141, (R)-6-(3-(2,3-difluorophenyl)isoxazolidin-2-yl)-N-(2-methoxy-4-(1-methylpiperidin-4-yl)phenyl)pyrimidin-4-amine], the GI50 is less than 50 nM. As for `COc1cc(N2CCC(N3CCN(C)CC3)CC2)c(C(C)C)cc1Nc1cc(N2OCC[C@@H]2c2cccc(F)c2F)ncn1` [Example 142, (R)-6-(3-(2,3-difluorophenyl)isoxazolidin-2-yl)-N-(5-isopropyl-2-methoxy-4-(4-(4-methylpiperazin-1-yl)piperidin-1-yl)phenyl)pyrimidin-4-amine], the GI50 is less than 50 nM. For `COc1cc(N2CCC(N3CCN(C)CC3)CC2)c(C2CC2)cc1Nc1cc(N2OCC[C@@H]2c2ccccc2)ncn1` [Example 143, (R)—N-(5-cyclopropyl-2-methoxy-4-(4-(4-methylpiperazin-1-yl)piperidin-1-yl)phenyl)-6-(3-phenylisoxazolidin-2-yl)pyrimidin-4-amine], the GI50 was less than 50 nM. Regarding `COc1cc(N2CCC(N3CCN(C)CC3)CC2)c(C(C)=O)cc1Nc1cc(N2OCC[C@@H]2c2cccc(F)c2F)ncn1` [Example 145, (R)-1-(5-((6-(3-(2,3-difluorophenyl)isoxazolidin-2-yl)pyrimidin-4-yl)amino)-4-methoxy-2-(4-(4-methylpiperazin-1-yl)piperidin-1-yl)phenyl)ethan-1-one], the GI50 is less than 50 nM. The same measure for `CO/N=C(\C)c1cc(Nc2cc(N3OCC[C@@H]3c3cccc(F)c3F)ncn2)c(OC)cc1N1CCC(N2CCN(C)CC2)CC1` [Example 146, (R,E)-1-(5-((6-(3-(2,3-difluorophenyl)isoxazolidin-2-yl)pyrimidin-4-yl)amino)-4-methoxy-2-(4-(4-methylpiperazin-1-yl)piperidin-1-yl)phenyl)ethan-1-one O-methyl oxime]: less than 50 nM; for `COc1nc(N2CCC(N3CCN(C)CC3)CC2)c(-c2cnn(C)c2)cc1Nc1cc(N2OCC[C@@H]2c2ccccc2)ncn1` [Example 147, (R)—N-(2-methoxy-5-(1-methyl-1H-pyrazol-4-yl)-6-(4-(4-methylpiperazin-1-yl)piperidin-1-yl)pyridin-3-yl)-6-(3-phenylisoxazolidin-2-yl)pyrimidin-4-amine]: less than 50 nM. For the compound `COc1cc2c(cc1Nc1cc(N3OCC[C@@H]3c3cc(F)cc(F)c3)ncn1)N(C(=O)C(F)(F)F)CC21CCN(C)CC1` [Example 152, (R)-1-(6-((6-(3-(3,5-difluorophenyl)isoxazolidin-2-yl)pyrimidin-4-yl)amino)-5-methoxy-1′-methylspiro[indolin-3,4′-piperidin]-1-yl)-2,2,2-trifluoroethan-1-one], the GI50 is less than 50 nM. With `COc1cc2c(cc1Nc1cc(N3OCC[C@@H]3c3cc(F)cc(F)c3)ncn1)NCC21CCN(C)CC1` [Example 154, (R)—N-(6-(3-(3,5-difluorophenyl)isoxazolidin-2-yl)pyrimidin-4-yl)-5-methoxy-1′-methylspiro[indolin-3,4′-piperidin]-6-amine] the figure was less than 50 nM; with `CN1CCC(c2ccc(Nc3cc(N4OCC[C@@H]4c4cc(F)cc(F)c4)ncn3)c3c2CCO3)CC1` [Example 155, (R)-6-(3-(3,5-difluorophenyl)isoxazolidin-2-yl)-N-(4-(1-methylpiperidin-4-yl)-2,3-dihydrobenzofuran-7-yl)pyrimidin-4-amine], less than 50 nM; with `Fc1cc(F)cc([C@H]2CCON2c2cc(Nc3ccc(C4CCNCC4)c4c3OCC4)ncn2)c1` [Example 157, (R)-6-(3-(3,5-difluorophenyl)isoxazolidin-2-yl)-N-(4-(piperidin-4-yl)-2,3-dihydrobenzofuran-7-yl)pyrimidin-4-amine], less than 50 nM. Regarding `Fc1cc(F)cc([C@H]2CCON2c2cc(Nc3cccc4c3OCC4)ncn2)c1` [Example 159, (R)-6-(3-(3,5-difluorophenyl)isoxazolidin-2-yl)-N-(2,3-dihydrobenzofuran-7-yl)pyrimidin-4-amine], the GI50 lay within 50 to 500 nM. For the compound `CN1CCC(n2cc(-c3ccc(Nc4cc(N5OCC[C@@H]5c5cc(F)cc(F)c5)ncn4)c4c3CCO4)cn2)CC1` [Example 160, (R)-6-(3-(3,5-difluorophenyl)isoxazolidin-2-yl)-N-(4-(1-(1-methylpiperidin-4-yl)-1H-pyrazol-4-yl)-2,3-dihydrobenzofuran-7-yl)pyrimidin-4-amine], the GI50 fell in the range of 50 to 500 nM. As to `CCC(=O)Nc1cc(Nc2cc(N3OCC[C@@H]3c3cc(F)cc(F)c3)ncn2)c(OC)cc1N1CCC(N2CCN(C3CC3)CC2)CC1` [Example 161, (R)—N-(2-(4-(4-cyclopropylpiperazin-1-yl)piperidin-1-yl)-5-((6-(3-(3,5-difluorophenyl)isoxazolidin-2-yl)pyrimidin-4-yl)amino)-4-methoxyphenyl)propionamide], the GI50 was less than 50 nM. The same measure for `CN1CCN(c2c(-c3cnn(C)c3)cc(Nc3cc(N4OCC[C@@H]4c4ccccc4)ncn3)c3c2CCO3)CC1` [Example 162, (R)—N-(5-(1-methyl-1H-pyrazol-4-yl)-4-(4-methylpiperazin-1-yl)-2,3-dihydrobenzofuran-7-yl)-6-(3-phenylisoxazolidin-2-yl)pyrimidin-4-amine]: less than 50 nM; for `CCC(=O)Nc1cc(Nc2cc(N3OCC[C@@H]3c3cccs3)ncn2)c(OC)cc1N1CCC(N2CCN(C3CC3)CC2)CC1` [Example 163, (R)—N-(2-(4-(4-cyclopropylpiperazin-1-yl)piperidin-1-yl)-4-methoxy-5-((6-(3-(thiophene-2-yl)isoxazolidin-2-yl)pyrimidin-4-yl)amino)phenyl)propionamide]: less than 50 nM. For the compound `CN1CCN(C2CCN(c3cc(OCC(F)(F)F)c(Nc4cc(N5OCC[C@@H]5c5ccccc5)ncn4)cc3-c3cnn(C)c3)CC2)CC1` [Example 164, (R)—N-(5-(1-methyl-1H-pyrazol-4-yl)-4-(4-(4-methylpiperazin-1-yl)piperidin-1-yl)-2-(2,2,2-trifluoroethoxy)phenyl)-6-(3-phenylisoxazolidin-2-yl)pyrimidin-4-amine], the GI50 was less than 50 nM. The same measure for `Cn1cc(-c2cc(Nc3cc(N4OCC[C@@H]4c4ccccc4)ncn3)c(OCC(F)(F)F)cc2N2CCC(N3CCOCC3)CC2)cn1` [Example 165, (R)—N-(5-(1-methyl-1H-pyrazol-4-yl)-4-(4-morpholinopiperidin-1-yl)-2-(2,2,2-trifluoroethoxy)phenyl)-6-(3-phenylisoxazolidin-2-yl)pyrimidin-4-amine]: less than 50 nM. As for `CN1CCN(c2cc(OCC(F)(F)F)c(Nc3cc(N4OCC[C@@H]4c4ccccc4)ncn3)cc2-c2cnn(C)c2)CC1` [Example 166, (R)—N-(5-(1-methyl-1H-pyrazol-4-yl)-4-(4-methylpiperazin-1-yl)-2-(2,2,2-trifluoroethoxy)phenyl)-6-(3-phenylisoxazolidin-2-yl)pyrimidin-4-amine], the concentration for 50% growth inhibition (GI50) is less than 50 nM. `Cn1cc(-c2cc(Nc3cc(N4OCC[C@@H]4c4ccccc4)ncn3)c(OCC(F)(F)F)cc2N2CCOCC2)cn1` [Example 167, (R)—N-(5-(1-methyl-1H-pyrazol-4-yl)-4-morpholino-2-(2,2,2-trifluoroethoxy)phenyl)-6-(3-phenylisoxazolidin-2-yl)pyrimidin-4-amine]: the GI50 was less than 50 nM. The same measure for `COc1cc(N2CCC(N3CCN(C)CC3)CC2)ccc1Nc1cc(N2OCC[C@@H]2c2cncc(F)c2)ncn1` [Example 169, (R)-6-(3-(5-fluoropyridin-3-yl)isoxazolidin-2-yl)-N-(2-methoxy-4-(4-(4-methylpiperazin-1-yl)piperidin-1-yl)phenyl)pyrimidin-4-amine]: 50 to 500 nM. The same measure for `COc1cc(N2CCC(N3CCN(C)CC3)CC2)ccc1Nc1cc(N2OCC[C@@H]2c2cc(F)cc(C#N)c2)ncn1` [Example 170, (R)-3-fluoro-5-(2-(6-((2-methoxy-4-(4-(4-methylpiperazin-1-yl)piperidin-1-yl)phenyl)amino)pyrimidin-4-yl)isoxazolidin-3-yl)benzonitrile]: 50 to 500 nM.

For `Fc1cccc([C@H]2CCON2c2cc(Nc3ccc([C@H]4CCON4)cc3)ncn2)c1F` [Example 174, 6-((R)-3-(2,3-difluorophenyl)isoxazolidin-2-yl)-N-(4-((R)-isoxazolidin-3-yl)phenyl)pyrimidin-4-amine], the GI50 fell in the range of 50 to 500 nM. On to `CN1OCC[C@H]1c1ccc(Nc2cc(N3OCC[C@@H]3c3cccc(F)c3F)ncn2)cc1` [Example 176, 6-((R)-3-(2,3-difluorophenyl)isoxazolidin-2-yl)-N-(4-((S)-2-methylisoxazolidin-3-yl)phenyl)pyrimidin-4-amine], for which the GI50 is 50 to 500 nM. With `Fc1cccc([C@H]2CCON2c2cc(Nc3ccc([C@@H]4CCON4)cc3)ncn2)c1F` [Example 177, 6-((R)-3-(2,3-difluorophenyl)isoxazolidin-2-yl)-N-(4-((S)-isoxazolidin-3-yl)phenyl)pyrimidin-4-amine] the figure was 50 to 500 nM; with `CN1CCN(c2ccc(Nc3cc(N4OCC[C@@H]4c4cncc(Cl)c4)ncn3)cc2)CC1` [Example 180, (R)-6-(3-(5-chloropyridin-3-yl)isoxazolidin-2-yl)-N-(4-(4-methylpiperazin-1-yl)phenyl)pyrimidin-4-amine], 50 to 500 nM. With `COc1cc(N2CCC(N3CCN(C)CC3)CC2)ccc1Nc1cc(N2OCC[C@@H]2c2cncc(Cl)c2)ncn1` [Example 182, (R)-6-(3-(5-chloropyridin-3-yl)isoxazolidin-2-yl)-N-(2-methoxy-4-(4-(4-methylpiperazin-1-yl)piperidin-1-yl)phenyl)pyrimidin-4-amine] the figure was less than 50 nM. Turning to `COc1cc(N2CCC(N3CCN(C)CC3)CC2)ccc1Nc1cc(N2OCC[C@@H]2c2cccc(C(F)F)c2)ncn1` [Example 184, (R)-6-(3-(3-(difluoromethyl)phenyl)isoxazolidin-2-yl)-N-(2-methoxy-4-(4-(4-methylpiperazin-1-yl)piperidin-1-yl)phenyl)pyrimidin-4-amine], the GI50 was 50 to 500 nM.

The record behind these values is patent US12534457B2, “Heteroaryl derivative compounds, and uses thereof” (Voronoi Inc., priority 2021, dated 2026).
